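Results reflect a 48-hour exposure of cells in 96-well plates to compound at five concentrations. At the GI50, growth is halved.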 Active and inactive are the calls of the source. Rule as the data show it: active = GI50 up to about 1.1 µM and inactive = higher. Peptide text beside a SMILES is read from it.

One may read the GI50 as the concentration at which growth is held to half of that of the control.

Among the test systems are SW-620; KM12; SR; SK-MEL-28; OVCAR-5; MDA-N; MOLT-4; A549; EKVX; CCRF-CEM; ACHN; OVCAR-3; SN12C; T47D; LOX IMVI; HOP-92; UACC-62; OVCAR-8; OVCAR-4; PC-3.
Common to all, as to experiment: DTP human tumour cell line panel, 48 h

Turning to `CC(=O)NC(CS)C(=O)NC(CO)C(=O)NC(CO)C(=O)NC(Cc1c[nH]c2ccccc12)C(=O)N1CCCC1C(=O)NC(CO)C(=O)NC(Cc1c[nH]c2ccccc12)C(=O)NC(Cc1c[nH]cn1)C(=O)NC(CO)C(=O)NC(Cc1c[nH]c2ccccc12)C(=O)NCC(=O)NCC(=O)NC(C)C(=O)NC(CCC(N)=O)C(=O)NC(CCCCN)C(=O)NC(C)C(=O)NC(CCCNC(=N)N)C(=O)NC(CCCCN)C(N)=O` (stereo not given) (Ac-CSSWPSWHSWGGAQKARK-NH2; configuration not given here), the GI50 with SW-620 was 23.4 µM (inactive); in the test on KM12, 11.6 µM (inactive); in the test on SR it was 11.8 µM (inactive); with SK-MEL-28, 11.1 µM (inactive); in the test with OVCAR-5, > 50 µM (inactive); in the test on MDA-N, 19.1 µM (inactive). The GI50 in the test on MOLT-4 was 29.8 µM (inactive); with A549, > 50 µM (inactive); in the test on EKVX, 28.3 µM (inactive); in the test on CCRF-CEM, 17.7 µM (inactive); in the test with ACHN it was 17.7 µM (inactive); with OVCAR-3, > 50 µM (inactive). For the same compound, the GI50 with SN12C was 43 µM (inactive); in the test with T47D, 11 µM (inactive); in the test on LOX IMVI it was 46.3 µM (inactive); with HOP-92, > 50 µM (inactive); in the test on UACC-62 it was 10.9 µM (inactive); in the test with OVCAR-8, 42.6 µM (inactive). Besides, the GI50 in the test on OVCAR-4 and with PC-3 was > 50 µM (inactive) each time.
As for `CCCCC[C@H](O)[C@H](C)C=C1SCCCS1`, the GI50 with SW-620, in the test on KM12, in the test on SR, in the test on SK-MEL-28, in the test on OVCAR-5 and with MDA-N was > 100 µM (inactive) in each case. Besides, the GI50 in the test on MOLT-4, in the test on A549, with EKVX, in the test on CCRF-CEM, in the test on ACHN and in the test on OVCAR-3 was > 100 µM (inactive) each time. The GI50 in the test with SN12C was > 100 µM (inactive); with T47D, 43.2 µM (inactive); in the test on LOX IMVI, > 100 µM (inactive); in the test with HOP-92, > 100 µM (inactive); in the test with UACC-62, > 100 µM (inactive); with OVCAR-8 it was > 100 µM (inactive). The GI50 in the test with OVCAR-4 and in the test with PC-3 was > 100 µM (inactive) each time.
`Cc1ccccc1NC(=S)N/N=C(/c1ccccc1)c1ccccn1`: the GI50 was < 0.01 µM (active) in the test on SW-620; 0.0405 µM (active) in the test with KM12; < 0.0262 µM (active) with SR; 2.3 µM (inactive) in the test on SK-MEL-28; < 0.0165 µM (active) with OVCAR-5; 0.7 µM (active) in the test with MDA-N. Further, the GI50 in the test on MOLT-4 is < 0.0295 µM (active); with A549, 0.0428 µM (active); in the test on EKVX it was < 0.0381 µM (active); in the test with CCRF-CEM it was < 0.01 µM (active); in the test on ACHN, < 0.01 µM (active); in the test on OVCAR-3, < 0.01 µM (active). Also, the GI50 with SN12C was 0.067 µM (active); in the test with T47D it was < 0.01 µM (active); with LOX IMVI it was < 0.01 µM (active); with HOP-92, 0.283 µM (active); in the test with UACC-62, 0.171 µM (active); in the test with OVCAR-8, 0.0279 µM (active). The concentration for 50% growth inhibition (GI50) in the test with OVCAR-4 was 0.0826 µM (active); in the test on PC-3, < 0.01 µM (active).
In the case of `CC[C@@]1(O)C(=O)OCc2c1cc1n(c2=O)Cc2c-1nc1ccccc1c2/C=N\NC(=O)C[n+]1ccccc1`, the GI50 with SW-620 was 1.33 µM (inactive); with KM12, 8.55 µM (inactive); in the test on SR, 0.0411 µM (active); in the test with SK-MEL-28, 3.29 µM (inactive); in the test with OVCAR-5, 6.18 µM (inactive); in the test on MDA-N it was 4.02 µM (inactive). Moreover, the GI50 in the test on MOLT-4 was 0.0552 µM (active); with A549 it was 0.513 µM (active); in the test with EKVX it was > 28.1 µM (inactive); with CCRF-CEM it was 0.0357 µM (active); in the test on ACHN, 0.0531 µM (active); in the test with OVCAR-3, 7.78 µM (inactive). Besides, the GI50 in the test with SN12C was 0.119 µM (active); with T47D it was 0.0346 µM (active); in the test with LOX IMVI it was 0.218 µM (active); in the test with HOP-92 it was 3.14 µM (inactive); with UACC-62 it was 0.0541 µM (active); with OVCAR-8 it was 0.398 µM (active). The GI50 was 8.57 µM (inactive) in the test with OVCAR-4 and 4.49 µM (inactive) in the test with PC-3.
`O=C(NNC(=S)Nc1ccc(Cl)cc1)C12CC3CC(CC(C3)C1)C2`: the GI50 with SW-620 is 3.76 µM (inactive); in the test on KM12, 9.84 µM (inactive); in the test with SR it was 1.04 µM (active); with SK-MEL-28, 14.8 µM (inactive); with OVCAR-5, 20.3 µM (inactive); in the test on MDA-N, 10.2 µM (inactive). Also, the GI50 in the test on MOLT-4 is 1.98 µM (inactive); in the test with A549, 3.84 µM (inactive); in the test with EKVX it was 5.73 µM (inactive); in the test on CCRF-CEM it was 1.29 µM (inactive); in the test with ACHN, 4.19 µM (inactive); in the test with OVCAR-3, 2.45 µM (inactive). Besides, the GI50 was 6.52 µM (inactive) with SN12C; 4.59 µM (inactive) in the test with T47D; 2.53 µM (inactive) in the test on LOX IMVI; 11.3 µM (inactive) with HOP-92; 3.88 µM (inactive) in the test on UACC-62; 3.52 µM (inactive) in the test with OVCAR-8. Further, the GI50 in the test with OVCAR-4 is 4.92 µM (inactive); in the test on PC-3, 3.19 µM (inactive).
Consider `Cc1nc2c(=O)n(C)c(=O)nc-2n(CCO)c1C`, for which the GI50 in the test on SW-620, in the test on KM12, with SR, in the test with SK-MEL-28, in the test with OVCAR-5 and with MDA-N was > 100 µM (inactive) in each case. Moreover, the GI50 in the test with MOLT-4, in the test with A549, with EKVX, in the test on CCRF-CEM, with ACHN and in the test on OVCAR-3 was > 100 µM (inactive) in each case. Moreover, the GI50 in the test with SN12C, in the test on T47D, in the test on LOX IMVI, in the test on HOP-92, with UACC-62 and in the test on OVCAR-8 was > 100 µM (inactive) each time. Moreover, the GI50 with OVCAR-4 and with PC-3 was > 100 µM (inactive) each time.
Consider `CC(=O)[C@H]1[C@H](O)C[C@@]2(C)[C@@H]3CCc4cc(O)c(OC5OC(CO)C(O)C(O)C5O)cc4C3(C)C(=O)C[C@]12C` (stereo not given in full), for which the GI50 in the test with SW-620, in the test with KM12, in the test with SR, in the test with SK-MEL-28, in the test on OVCAR-5 and in the test with MDA-N was > 100 µM (inactive) in each case. For the same compound, the GI50 in the test on MOLT-4, with A549, with EKVX, with CCRF-CEM, in the test on ACHN and in the test with OVCAR-3 was > 100 µM (inactive) each time. Besides, the GI50 in the test with SN12C, with T47D, with LOX IMVI, with HOP-92, in the test on UACC-62 and with OVCAR-8 was > 100 µM (inactive) in each case. Besides, the GI50 in the test with OVCAR-4 and in the test with PC-3 was > 100 µM (inactive) in each case.
`CC(=O)NCCCCCCNC(C)=O` [HEXAMETHYLENEBISACETAMIDE]: the GI50 is > 3570 µM (inactive) with SW-620; 8450 µM (inactive) in the test with KM12; > 8530 µM (inactive) in the test with SR; 6980 µM (inactive) in the test on SK-MEL-28; 8240 µM (inactive) in the test on OVCAR-5; 7570 µM (inactive) in the test on MDA-N. For the same compound, the GI50 was 7280 µM (inactive) in the test with MOLT-4; 2290 µM (inactive) in the test on A549; 7280 µM (inactive) in the test with EKVX; 7670 µM (inactive) in the test on CCRF-CEM; > 10000 µM (inactive) with ACHN; 8180 µM (inactive) with OVCAR-3. Moreover, the GI50 in the test with SN12C was 7500 µM (inactive); with T47D, > 5680 µM (inactive); in the test with LOX IMVI it was 4680 µM (inactive); in the test with HOP-92 it was 3560 µM (inactive); with UACC-62, 4050 µM (inactive); in the test on OVCAR-8 it was 7620 µM (inactive). The GI50 in the test with OVCAR-4 is 6550 µM (inactive); in the test with PC-3, 8180 µM (inactive).
Consider `CCCCCN1C(=O)C(Cc2ccccc2)N=C(c2ccc(O)cc2)c2cc(Cl)ccc21` (stereo not given), for which the GI50 with SW-620 is 10.9 µM (inactive); with KM12, 10.1 µM (inactive); with SR, 2.97 µM (inactive); in the test on SK-MEL-28 it was 15.1 µM (inactive); in the test with OVCAR-5 it was 22.3 µM (inactive); in the test on MDA-N it was > 21.2 µM (inactive). Also, the GI50 was 4.09 µM (inactive) in the test on MOLT-4; 13.6 µM (inactive) in the test on A549; 8.41 µM (inactive) in the test on EKVX; 12.2 µM (inactive) in the test on CCRF-CEM; 13 µM (inactive) in the test on ACHN; 17.3 µM (inactive) in the test on OVCAR-3. The GI50 was > 20.7 µM (inactive) in the test on SN12C; 3.72 µM (inactive) in the test on T47D; 6.56 µM (inactive) in the test with LOX IMVI; 10.7 µM (inactive) with HOP-92; 10.3 µM (inactive) in the test with UACC-62; 8.87 µM (inactive) in the test on OVCAR-8. In addition, the GI50 with OVCAR-4 is 7.73 µM (inactive); with PC-3, 6.21 µM (inactive).

The values are drawn from ChEMBL document CHEMBL1201862, “PubChem BioAssay data set” (2004).
